# Source: patent publication US7026518B2 (Laila Impex, priority 2002, dated 2006)
# Key:
# [1] = Superoxide scavenging activity (NBT), McCord and Fridovich method; settings: light induced superoxide generation by riboflavin, reduction of NBT
# Method: Antioxidant (superoxide scavenging) activity of these compounds are determined by conventional methods like McCord and Fridovich method, which is based on light induced superoxide generation by riboflavin and corresponding reduction of NBT. The assay mixture contains phosphate buffer, EDTA, NBT and riboflavin. Different concentrations of these compounds were assessed and their optical densities measured before and after illumination. The percentage value of inhibition of superoxide production by the compounds of this invention was evaluated and compared with the absorbance value of control and experimental data.
Structure (SMILES),Superoxide scavenging activity (NBT) IC50 [1],melting point
"Oc1ccc(/C=C/c2cc(O)c(O)c(O)c2)cc1O [Compound 1, 5-[(1E)-2-(3,4-dihydroxyphenyl)vinyl]-benzene1,2,3-triol]",3.0 µg/mL,150 to 152 °C
"Oc1cc(/C=C/c2cc(O)c(O)c(Br)c2)cc(O)c1O [Compound 2, 5-[(1E)-2-(5-Bromo-3,4-dihydroxyphenyl)vinyl]-benzene1,2,3-triol]",8.1 µg/mL,180 to 182 °C
"Oc1cc(/C=C/c2cc(O)c(O)c(O)c2)cc(O)c1O [Compound 3, 5-[(1E)-2-(3,4,5-trihydroxyphenyl)vinyl]-benzene1,2,3-triol]",0.9 µg/mL,
"O=C(Oc1cc(O)cc(/C=C/c2ccc(O)cc2)c1)c1cc(O)c(O)c(O)c1 [Compound 4, 5-[(1E)2-(4-hydroxyphenyl)vinyl]-3-hydroxyphenyl 3,4,5-trihydroxybenzoate]",16.0 µg/mL,

# Continued, values first:
Superoxide scavenging activity (NBT) IC50 [1],melting point,Structure (SMILES)
17.5 µg/mL,,"O=C(Oc1cc(/C=C/c2ccc(O)cc2)cc(OC(=O)c2cc(O)c(O)c(O)c2)c1)c1cc(O)c(O)c(O)c1 [Compound 5, 3-[(1E)-2-(4-hydroxyphenyl)vinyl]-5-(3,4,5trihydroxyphenylcarbonyloxy)-phenyl 3,4,5-trihydroxybenzoate]"
9.2 µg/mL,,"O=C(/C=C/c1ccc(O)c(O)c1)Oc1cc(O)cc(/C=C/c2ccc(O)cc2)c1 [Compound 6, 5-[(1E)-2-(4-hydroxyphenyl)vinyl]-3-hydroxyphenyl(2E)-3(3,4-dihydroxyphenyl) prop-2-enoate]"
10.0 µg/mL,,"O=C(/C=C/c1cc(O)c(O)c(O)c1)Oc1cc(O)cc(/C=C/c2ccc(O)cc2)c1 [Compound 7, 5-[(1E)-2-(4-hydroxyphenyl)vinyl]-3-hydroxyphenyl(2E)3(3,4,5-trihydroxyphenyl) prop-2-enoate]"
34.1 µg/mL,92 to 94 °C,"CN(C)CCOc1cc(O)cc(/C=C/c2ccc(O)cc2)c1 [Compound 8, 3-[(1E)-2-(4-hydroxyphenyl)vinyl]-5-[2-(dimethylamino)ethoxy] phenol]"
29.3 µg/mL,,"Cl.NCC(=O)Oc1cc(O)cc(/C=C/c2ccc(O)cc2)c1 [Compound 9, 5-[(1E)-2-(4-hydroxyphenyl)vinyl]-3-hydroxyphenyl 2-aminoacetate hydrochloride]"
